Peptide text beside a SMILES is read from it.
Assays:
[1] = tested on: post-infusion PBMC samples
HLA-A*02:01 = HLA-A*02:01 (Homo sapiens, UniProt P04439, D140Y/D185E/D98H/E176V/E277Q/G131W/G231S/I119V/I121R/I166T/I218V/L300P/L318F/N151K/N90K/P208A/P217A/Q86G/Q94H/R138H/R169H/T345S); assay: REVEAL Epitope Discovery System in vitro MHC-peptide binding score; details: for A*02:01 In Vitro Score: REVEAL score, positive control peptide set at 100%, greater than 50 = good or high affinity binding; for predicted or actual binding affinity or score for HLA class I: for at least one HLA allele (A*02:01, A*03:01, A*11:01, B*08:01) and/or at least one peptide, in silico or in vitro
Description: (§1) Actual binding affinities for certain HLA class I alleles (A*02:01, A*03:01. A*11:01, and B*08:01) were assessed in vitro for exemplary overlapping 9 amino acid peptide sequences within a portion of the 26 amino acid junction region spanning the CD28 and 4-1BB junction. Specifically, assessment was of a series of overlapping 9-mer peptides derived from the sequence […] (set forth in SEQ ID NO: 7), which contains a portion of the CD28 transmembrane domain and 4-1BB costimulatory domain spanning the junction between the domains (bond joining the two amino acids noted in underline). In addition, a series of overlapping 9-mer peptides of each of a number of different variants of this portion also were assessed, each variant containing a mutation or mutations in this region as described in Example 2.
(§2) The various 9-mer overlapping peptides were synthesized and their purity tested by MALDI-TOF Mass Spectrometry. The synthetic peptides were then incubated with recombinant MHC molecules to assess binding properties using the REVEAL Epitope Discovery System, which is a high-throughput binding assay that measures the degree to which each peptide is able to stabilize a ternary MHC-peptide complex (ProImmune, Oxford, United Kingdom). Each peptide was separately tested for this ability with respect to each of the HLA class I alleles, normalized to the degree observed for a positive control (known T cell epitope for the relevant allele). The results are reported as a score, in which the binding was normalized to the positive control peptide set at 100%.

HLA-A*03:01 = HLA-A*03:01 (Homo sapiens, UniProt P04439); assay: as above; details: positive control peptide set at 100%, greater than 50 = good or high affinity binding
Description: as §1, §2

HLA-A*11:01 = HLA-A*11:01 (Homo sapiens, UniProt P04439, A114D/D185E/E176A/F33Y/L180Q/S129P/T187R); assay: as above; set-up: key: % binding, normalized to positive control peptide set at 100%; details: binding normalized to positive control peptide set at 100%, greater than 50 considered good or high affinity binding
Description: as §1, §2

HLA-B*08:01 = HLA-B*08:01 (Homo sapiens, UniProt P01889, A93T/A95T/D138N/E176V/E187T/K202T/Q94N/R180D/S35A/V36M/Y33D/Y91F); assay: as above; set-up: key: % binding, normalized to positive control peptide set at 100%; details: binding normalized to positive control peptide set at 100%, greater than 50 considered good or high affinity binding
Description: as §1, §2

[2] = tested on: intracellular IL-2 and IFN-γ; assay: Intracellular cytokine expression after co-culture with K562-CD19; assay type: cell-based, human; details: versus unmodified CAR; for percentage of cells with IFN-γ cytokine expression: CD8+/CAR+ T cells after antigen stimulation; for percentage of cells with intracellular expression of IL-2: CD4+/CAR+ and CD8+/CAR+ T cells after antigen stimulation
Description: The production of cytokines by the anti-CD19 CAR T cells, expressing CARs containing either the native junction region or the various modified junction regions, was assessed. Engineered T cells were co-cultured with irradiated CD19-transduced K562 target cells (K562-CD19) or parental K562 cells not expressing the CD19 antigen in the presence of Golgi inhibitor. After stimulation, the cells were then fixed, permeabilized and intracellular IL-2 and IFN-γ cytokine levels were assessed by flow cytometry in CD4+/CAR+ cells and CD8+/CAR+ cells

CC[C@H](C)[C@H](NC(=O)[C@H](Cc1ccccc1)NC(=O)[C@H](C)N)C(=O)N[C@H](C(=O)N[C@@H](Cc1ccccc1)C(=O)N[C@@H](Cc1c[nH]c2ccccc12)C(=O)N[C@H](C(=O)N[C@@H](CCCCN)C(=O)N[C@@H](CCCNC(=N)N)C(=O)NCC(=O)N[C@@H](CCCNC(=N)N)C(=O)N[C@@H](CCCCN)C(=O)N[C@@H](CCCCN)C(=O)N[C@@H](CC(C)C)C(=O)N[C@@H](CC(C)C)C(=O)O)C(C)C)[C@@H](C)CC (H-AFIIFWVKRGRKKLL-OH; N-terminus and C-terminus assumed)
specific immune response (ELISpot) [1]: specific immune responses also were detected

CC[C@H](C)[C@H](NC(=O)[C@H](Cc1ccc(O)cc1)NC(=O)[C@H](CC(C)C)NC(=O)[C@H](CC(C)C)NC(=O)[C@H](CCCCN)NC(=O)[C@H](CCCCN)NC(=O)[C@H](CCCNC(=N)N)NC(=O)CNC(=O)[C@H](CCCNC(=N)N)NC(=O)[C@H](CCCCN)NC(=O)[C@@H](NC(=O)[C@H](Cc1c[nH]c2ccccc12)NC(=O)[C@@H](N)Cc1ccccc1)C(C)C)C(=O)N[C@@H](Cc1ccccc1)C(=O)N[C@@H](CCCCN)C(=O)O (H-FWVKRGRKKLLYIFK-OH; N-terminus and C-terminus assumed)
specific immune response (ELISpot) [1]: specific immune responses also were detected

IFWVSRGRK [9-mer variant junction peptide, K28S]
A*02:01 In Vitro Score (HLA-A*02:01): 1.30
A*03:01 In Vitro (HLA-A*03:01): 39.20
A*11:01 In Vitro Score (HLA-A*11:01): 39.20
B*08:01 In Vitro Score (HLA-B*08:01): 0.00

IIFWVKRGR [9-mer of CD28/4-1BB junction region, mutation none]
A*02:01 In Vitro Score (HLA-A*02:01): 1.70
A*03:01 In Vitro (HLA-A*03:01): 24.30
A*11:01 In Vitro Score (HLA-A*11:01): 54.50
B*08:01 In Vitro Score (HLA-B*08:01): 0.00

B1: R31H: variant anti-CD19 CAR / junction region with R31H, numbering SEQ ID NO:5 (protein)
chain: FWVLVVVGGVLACYSLLVTVAFIIFWVKRGHKKLLYIFKQPFMRPVQTTQEEDGCSCRFPEEEEGGCEL
modifications: CD28-4-1BB
predicted or actual binding affinity or score for HLA class I (HLA-A*02:01): reduced predicted or actual binding affinity or score
percentage of cells with IFN-γ cytokine expression [2]: increased IFN-γ cytokine expression

B2: L34S: variant anti-CD19 CAR / junction region with L34S, numbering SEQ ID NO:5 (protein)
chain: FWVLVVVGGVLACYSLLVTVAFIIFWVKRGRKKSLYIFKQPFMRPVQTTQEEDGCSCRFPEEEEGGCEL
modifications: CD28-4-1BB
predicted or actual binding affinity or score for HLA class I (HLA-A*02:01): reduced predicted or actual binding affinity or score
percentage of cells with intracellular expression of IL-2 [2]: greater percentage

B3: L34A: variant anti-CD19 CAR / junction region with L34A, numbering SEQ ID NO:5 (protein)
chain: FWVLVVVGGVLACYSLLVTVAFIIFWVKRGRKKALYIFKQPFMRPVQTTQEEDGCSCRFPEEEEGGCEL
modifications: CD28-4-1BB
predicted or actual binding affinity or score for HLA class I (HLA-A*02:01): reduced predicted or actual binding affinity or score
percentage of cells with intracellular expression of IL-2 [2]: greater percentage
percentage of cells with IFN-γ cytokine expression [2]: increased IFN-γ cytokine expression
